Measurements published in US6420557B1, “Crystalline therapeutic agent” (Pfizer Inc., priority 2000, dated 2002).

Experiments:
[1] = early investigations of the crystals (hygroscopicity, stability, formulation properties); assay type: physicochemical; conditions: crystals having the XRD pattern of Table 1
[2] = target: cGMP PDE5 (Homo sapiens, UniProt O76074); conditions: statement in words, as detailed in WO 01/27113; cited from earlier work

- formulation properties [1]: good formulation properties
- hygroscopicity [1]: non-hygroscopic
- stability [1]: stable
Compound: CCOc1ncc(S(=O)(=O)N2CCN(CC)CC2)cc1-c1nc2c(CC)n(CCOC)nc2c(=O)[nH]1 [Example 1, 1-{6-ethoxy-5-[3-ethyl-6,7-dihydro-2-(2-methoxyethyl)-7-oxo-2H-pyrazolo[4,3-d]pyrimidin-5-yl]-3-pyridylsulfonyl}-4-ethylpiperazine]
- cGMP PDE5 inhibitor potency and selectivity [2]: potent and selective
